Patent US9951028B2, “Agricultural chemicals” (REDAG CROP PROTECTION LTD, priority 2013, dated 2018)

Legend:
Test in all cases: Herbicidal efficacy screen, corrected necrosis
Assay type in all cases: in vivo
[1] = system: Abutilon theophrasti (China Jute)
Method: (§1) Plants were obtained as seeds and were grown to the 2-4 true leaf stage. Plants were grown under laboratory conditions, individually in seed trays. Each plant (in an approximately 3 cm diameter plug) was then detached from the tray for spraying. The compounds were screened at a range of five concentrations, diluted in acetone and Tween™. A carrier only control was also conducted. Treatments were applied directly onto the plants, using a potter tower, at a specified application rate. One plant of each species was sprayed using a potter tower. The 3 different types of plants were placed on a 10 cm diameter platform directly beneath the potter sprayer and sprayed simultaneously. The growth of the plants and any Phytotoxicity effects were then assessed at intervals over 21 days, according to EPPO guideline PP1/135. In the tables below C represents a percentage increase in necrosis relative to the control of 0.1-50; B represents a percentage inhibition of 50-80; and A represents a percentage inhibition of 80-100. Certain compounds of the invention were screened for herbicidal efficacy against target plants: Amaranthus retroflexus (redroot pigweed), Abutilon theophrasti (China Jute): Capsella bursa-pastoris, (shepherd's-purse) Echinochloa crus-galli, Hordeum vulgare (Barley),

[2] = system: Amaranthus retroflexus (redroot pigweed)
Method: as §1

[3] = system: Capsella bursa-pastoris, (shepherd's-purse)
Method: as §1

[4] = 6.25 g/ha, day 1 post application
[5] = 6.25 g/ha, day 7 post application
[6] = 12.5 g/ha, day 1 post application
[7] = 12.5 g/ha, day 7 post application
[8] = 25 g/ha, day 1 post application
[9] = 25 g/ha, day 7 post application
[10] = 50 g/ha, day 1 post application
[11] = 50 g/ha, day 7 post application
[12] = 100 g/ha, day 1 post application
[13] = 100 g/ha, day 7 post application

CC(C)N(C)S(=O)(=O)NC(=O)c1cc(-n2c(=O)cc(C(F)(F)F)n(C)c2=O)c(F)cc1Cl [Compound 25, 2-Chloro-4-fluoro-N-(isopropyl(methyl)sulfamoyl)-5-[3-methyl-2,6-dioxo-4-(trifluoromethyl)pyrimidin-1-yl]benzamide, reference compound]
Average of corrected necrosis [1, 4]: C (C represents a percentage increase in necrosis relative to the control of 0.1-50) | Average of corrected necrosis [1, 5]: A (A represents a percentage inhibition of 80-100) | Average of corrected necrosis [1, 6]: C (C represents a percentage increase in necrosis relative to the control of 0.1-50) | Average of corrected necrosis [1, 7]: A (A represents a percentage inhibition of 80-100) | Average of corrected necrosis [1, 8]: C (C represents a percentage increase in necrosis relative to the control of 0.1-50) | Average of corrected necrosis [1, 9]: A (A represents a percentage inhibition of 80-100) | Average of corrected necrosis [1, 10]: C (C represents a percentage increase in necrosis relative to the control of 0.1-50) | Average of corrected necrosis [1, 11]: A (A represents a percentage inhibition of 80-100) | Average of corrected necrosis [1, 12]: C (C represents a percentage increase in necrosis relative to the control of 0.1-50) | Average of corrected necrosis [1, 13]: A (A represents a percentage inhibition of 80-100) | Average of corrected necrosis [2, 4]: C (C represents a percentage increase in necrosis relative to the control of 0.1-50) | Average of corrected necrosis [2, 5]: A (A represents a percentage inhibition of 80-100) | Average of corrected necrosis [2, 6]: C (C represents a percentage increase in necrosis relative to the control of 0.1-50) | Average of corrected necrosis [2, 7]: A (A represents a percentage inhibition of 80-100) | Average of corrected necrosis [2, 8]: C (C represents a percentage increase in necrosis relative to the control of 0.1-50) | Average of corrected necrosis [2, 9]: A (A represents a percentage inhibition of 80-100) | Average of corrected necrosis [2, 10]: C (C represents a percentage increase in necrosis relative to the control of 0.1-50) | Average of corrected necrosis [2, 11]: A (A represents a percentage inhibition of 80-100) | Average of corrected necrosis [2, 12]: C (C represents a percentage increase in necrosis relative to the control of 0.1-50) | Average of corrected necrosis [2, 13]: A (A represents a percentage inhibition of 80-100) | Average of corrected necrosis [3, 4]: 0% | Average of corrected necrosis [3, 5]: A (A represents a percentage inhibition of 80-100) | Average of corrected necrosis [3, 6]: 0% | Average of corrected necrosis [3, 7]: A (A represents a percentage inhibition of 80-100) | Average of corrected necrosis [3, 8]: 0% | Average of corrected necrosis [3, 9]: A (A represents a percentage inhibition of 80-100) | Average of corrected necrosis [3, 10]: C (C represents a percentage increase in necrosis relative to the control of 0.1-50) | Average of corrected necrosis [3, 11]: A (A represents a percentage inhibition of 80-100) | Average of corrected necrosis [3, 12]: C (C represents a percentage increase in necrosis relative to the control of 0.1-50) | Average of corrected necrosis [3, 13]: A (A represents a percentage inhibition of 80-100)
